Where a name gives a salt, the structure may show the parent alone.
System: Acinetobacter baumannii ATCC 17961
Test: Antimicrobial susceptibility testing: 90% growth inhibitory concentration (IC90) determination
Assay type: cell-based
Details: ATCC17961, Acinetobacter baumannii ATCC 17961, Iso-Sensitest broth, read-out: ATCC 17961 IC90
In short: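 Broth microdilution in Iso-Sensitest medium, twofold series (e.g. 50 to 0.097 μM final), ~5×10^5 CFU/ml inoculum, 35±2 °C. OD600 read every 20 min over 16 h. IC90 derived from growth inhibition during logarithmic phase.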

Row | SMILES | IC90 [µM]
1 | Cc1cc(NC(=O)c2ncc(-c3c[nH]nc3C(F)(F)F)n2C)ccc1C(=O)NCCCCCN [Example 50, N-(4-((5-aminopentyl)carbamoyl)-3-methylphenyl)-1-methyl-5-(3-(trifluoromethyl)-1H-pyrazol-4-yl)-1H-imidazole-2-carboxamide hydrochloride] | 4.68
2 | C#CCn1cc(-c2cnc(C(=O)Nc3ccc(C(=O)N4CCN(C(=O)NC5CNC5)CC4)c(Cl)c3)n2C)c(C(F)(F)F)n1 [Example 51, N-(Azetidin-3-yl)-4-(2-chloro-4-(1-methyl-5-(1-(prop-2-yn-1-yl)-3-(trifluoromethyl)-1H-pyrazol-4-yl)-1H-imidazole-2-carboxamido)benzoyl)piperazine-1-carboxamide Hydrochloride] | 0.122
3 | C#CCn1cc(-c2cnc(C(=O)Nc3ccc(C(=O)N4CCN(C(=O)NCC5(O)CNC5)CC4)c(Cl)c3)n2C)c(C(F)(F)F)n1 [Example 52, 4-(2-chloro-4-(1-methyl-5-(1-(prop-2-yn-1-yl)-3-(trifluoromethyl)-1H-pyrazol-4-yl)-1H-imidazole-2-carboxamido)benzoyl)-N-((3-hydroxyazetidin-3-yl)methyl)piperazine-1-carboxamide hydrochloride] | 0.192
4 | C#CCn1cc(-c2cnc(C(=O)Nc3ccc(C(=O)N4CCN(C(=O)N[C@H]5CCNC5)CC4)c(Cl)c3)n2C)c(C(F)(F)F)n1 [Example 53, (S)-4-(2-chloro-4-(1-methyl-5-[1-(prop-2-yn-1-yl)-3-(trifluoromethyl)-1H-pyrazol-4-yl)-1H-imidazole-2-carboxamido)benzoyl)-N-(pyrrolidin-3-yl)piperazine-1-carboxamide hydrochloride] | 0.161
5 | Cn1c(-c2cn(C3CC3)nc2C(F)(F)F)cnc1C(=O)Nc1ccc(C(=O)N2CCN(C(=O)C3CCNCC3)CC2)c(Cl)c1 [Example 54, N-(3-Chloro-4-(4-(piperidine-4-carbonyl)piperazine-1-carbonyl)phenyl)-5-(1-cyclopropyl-3-(trifluoromethyl)-1H-pyrazol-4-yl)-1-methyl-1H-imidazole-2-carboxamide hydrochloride] | 0.335
6 | Cn1cc(-c2cnc(C(=O)Nc3ccc(C(=O)N4CCN(C(=O)[C@@H]5C[C@@H](O)CN5)CC4)c(Cl)c3)n2C)c(C(F)(F)F)n1 [Example 55, N-[3-Chloro-4-[4-[(2S,4R)-4-hydroxypyrrolidine-2-carbonyl]piperazine-1-carbonyl]phenyl]-1-methyl-5-[1-methyl-3-(trifluoromethyl)pyrazol-4-yl]imidazole-2-carboxamide] | 1.95
7 | Cn1cc(-c2cnc(C(=O)Nc3ccc(C(=O)N4CCN(C(=O)C5(O)CCNCC5)CC4)c(Cl)c3)n2C)c(C(F)(F)F)n1 [Example 56, N-[3-Chloro-4-[4-(4-hydroxypiperidine-4-carbonyl)piperazine-1-carbonyl]phenyl]-1-methyl-5-[1-methyl-3-(trifluoromethyl)pyrazol-4-yl]imidazole-2-carboxamide 2,2,2-trifluoroacetate] | 1.51
8 | CCc1cc(NC(=O)c2ncc(-c3cn(C)nc3C(F)(F)F)n2C)ccc1C(=O)NCCOCCN [Example 57, N-(4-((2-(2-aminoethoxy)ethyl)carbamoyl)-3-ethylphenyl)-1-methyl-5-(1-methyl-3-(trifluoromethyl)-1H-pyrazol-4-yl)-1H-imidazole-2-carboxamide hydrochloride] | 4.15
9 | CN(C)CC(=O)N1CCN(S(=O)(=O)c2ccc(NC(=O)c3ncc(-c4c[nH]nc4C(F)(F)F)n3C)cc2Cl)CC1 [Example 58, N-(3-Chloro-4-((4-(dimethylglycyl)piperazin-1-yl)sulfonyl)phenyl)-1-methyl-5-(3-(trifluoromethyl)-1H-pyrazol-4-yl)-1H-imidazole-2-carboxamide] | 0.952
10 | Cn1c(-c2c[nH]nc2C(F)(F)F)cnc1C(=O)Nc1ccc(S(=O)(=O)N2CCN(C(=O)[C@@H]3C[C@@H](O)CN3)CC2)c(Cl)c1 [Example 59, N-(3-Chloro-4-((4-((2S,4R)-4-hydroxypyrrolidine-2-carbonyl)piperazin-1-yl)sulfonyl)phenyl)-1-methyl-5-(3-(trifluoromethyl)-1H-pyrazol-4-yl)-1H-imidazole-2-carboxamide Hydrochloride] | 0.823
11 | Cn1c(-c2cn(CC#N)nc2C(F)(F)F)cnc1C(=O)Nc1ccc(C(=O)N2CCN(C(=O)C3(O)CCNCC3)CC2)c(Cl)c1 [Example 60, N-[3-Chloro-4-[4-(4-hydroxypiperidine-4-carbonyl)piperazine-1-carbonyl]phenyl]-5-[1-(cyanomethyl)-3-(trifluoromethyl)pyrazol-4-yl]-1-methyl-imidazole-2-carboxamide; Formic Acid] | 0.468
12 | Cn1c(-c2cn(CC#N)nc2C(F)(F)F)cnc1C(=O)Nc1ccc(C(=O)N2CCN(C(=O)C3CCNCC3)CC2)c(Cl)c1 [Example 61, N-[3-Chloro-4-[4-(piperidine-4-carbonyl)piperazine-1-carbonyl]phenyl]-5-[1-(cyanomethyl)-3-(trifluoromethyl)pyrazol-4-yl]-1-methyl-imidazole-2-carboxamide Formate] | 0.506
13 | C[C@H](N)C(=O)N1CCN(C(=O)c2ccc(NC(=O)c3ncc(-c4cn(Cc5cccnc5)nc4C(F)(F)F)n3C)cc2Cl)CC1 [Example 62, N-[4-[4-[(2S)-2-Aminopropanoyl]piperazine-1-carbonyl]-3-chlorophenyl]-1-methyl-5-[1-(pyridin-3-ylmethyl)-3-(trifluoromethyl)pyrazol-4-yl]imidazole-2-carboxamide trihydrochloride] | 0.834
14 | Cn1c(-c2cn(Cc3cccnc3)nc2C(F)(F)F)cnc1C(=O)Nc1ccc(C(=O)N2CCN(C(=O)[C@H]3C[C@H](N)C3)CC2)c(Cl)c1 [Example 63, rac-N-(4-(4-((1r,3r)-3-aminocyclobutane-1-carbonyl)piperazine-1-carbonyl)-3-chlorophenyl)-1-methyl-5-(1-(pyridin-3-ylmethyl)-3-(trifluoromethyl)-1H-pyrazol-4-yl)-1H-imidazole-2-carboxamide trihydrochloride] | 0.517
15 | Cn1c(-c2cn(Cc3cccnc3)nc2C(F)(F)F)cnc1C(=O)Nc1ccc(C(=O)N2CCN(C(=O)[C@H]3CC[C@@H](N)C3)CC2)c(Cl)c1 [Example 64, N-(4-(4-((1S,3R)-3-aminocyclopentane-1-carbonyl)piperazine-1-carbonyl)-3-chlorophenyl)-1-methyl-5-(1-(pyridin-3-ylmethyl)-3-(trifluoromethyl)-1H-pyrazol-4-yl)-1H-imidazole-2-carboxamide trihydrochloride] | 4.67
16 | Cn1c(-c2c[nH]nc2-c2ccccc2)cnc1C(=O)Nc1ccc(C(=O)N2CCN(C(=O)C3CCNCC3)CC2)c(Cl)c1 [Example 66, N-[3-chloro-4-[4-(piperidine-4-carbonyl)piperazine-1-carbonyl]phenyl]-1-methyl-5-(3-phenyl-1H-pyrazol-4-yl)imidazole-2-carboxamide] | 0.825
17 | Cn1c(-c2cn(Cc3cccnc3)nc2C(F)(F)F)cnc1C(=O)Nc1ccc(C(=O)N2CCNCC2)c(Cl)c1 [Example 67, N-[3-chloro-4-(piperazine-1-carbonyl)phenyl]-1-methyl-5-[1-(pyridin-3-ylmethyl)-3-(trifluoromethyl)pyrazol-4-yl]imidazole-2-carboxamide;hydrochloride] | 1.44
18 | Cn1c(-c2cn(CCF)nc2C(F)(F)F)cnc1C(=O)Nc1ccc(C(=O)N2CCNCC2)c(Cl)c1 [Example 68, N-[3-chloro-4-(piperazine-1-carbonyl)phenyl]-5-[1-(2-fluoroethyl)-3-(trifluoromethyl)pyrazol-4-yl]-1-methylimidazole-2-carboxamide;hydrochloride] | 0.489
19 | Cn1c(-c2cn(CC#N)nc2C(F)(F)F)cnc1C(=O)Nc1ccc(C(=O)N2CCNCC2)c(Cl)c1 [Example 69, N-[3-chloro-4-(piperazine-1-carbonyl)phenyl]-5-[1-(cyanomethyl)-3-(trifluoromethyl)pyrazol-4-yl]-1-methylimidazole-2-carboxamide;2,2,2-trifluoroacetic acid] | 0.309
20 | Cn1c(-c2cn(Cc3cccnc3)nc2C(F)(F)F)cnc1C(=O)Nc1ccc(C(=O)N2CCN(C(=O)[C@H]3CCNC3)CC2)c(Cl)c1 [Example 70, N-[3-chloro-4-[4-[(3S)-pyrrolidine-3-carbonyl]piperazine-1-carbonyl]phenyl]-1-methyl-5-[1-(pyridin-3-ylmethyl)-3-(trifluoromethyl)pyrazol-4-yl]imidazole-2-carboxamide] | 0.497
21 | C[C@H](N)C(=O)N1CCN(C(=O)c2ccc(NC(=O)c3ncc(-c4cn(CC#N)nc4C(F)(F)F)n3C)cc2Cl)CC1 [Example 71, N-[4-[4-[(2S)-2-aminopropanoyl]piperazine-1-carbonyl]-3-chlorophenyl]-5-[1-(cyanomethyl)-3-(trifluoromethyl)pyrazol-4-yl]-1-methylimidazole-2-carboxamide;2,2,2-trifluoroacetic acid] | 0.216
22 | Cn1c(-c2cn(CC#N)nc2C(F)(F)F)cnc1C(=O)Nc1ccc(C(=O)N2CCN(C(=O)C3(O)CCCNC3)CC2)c(Cl)c1 (centres unmarked) [Example 72, N-[3-chloro-4-[4-(3-hydroxypiperidine-3-carbonyl)piperazine-1-carbonyl]phenyl]-5-[1-(cyanomethyl)-3-(trifluoromethyl)pyrazol-4-yl]-1-methylimidazole-2-carboxamide;2,2,2-trifluoroacetic acid] | 2.26

Same assay, conditions: Acinetobacter baumannii, ATCC17961, read-out: ATCC 17961 IC90, Acinetobacter baumannii ATCC 17961, Iso-Sensitest broth

Row | SMILES | IC90 [µM]
23 | C=C=Cn1cc(-c2cnc(C(=O)Nc3ccc(C(=O)N4CCN(C(=O)C5CCNCC5)CC4)c(Cl)c3)n2C)c(C(F)(F)F)n1 [Example 65, N-[3-chloro-4-[4-(piperidine-4-carbonyl)piperazine-1-carbonyl]phenyl]-1-methyl-5-[1-propa-1,2-dienyl-3-(trifluoromethyl)pyrazol-4-yl]imidazole-2-carboxamide; Hydrochloride] | 0.26
